Laboratory results taken from patent EP0931836B1, “Vasopermeability enhancing peptide of human interleukin-2 and immunoconjugates thereof” (priority 1998, dated 2004).
Blank lines part the entries; values can stand above or below the molecule they belong to.

Key:
[1] = tested on: Raji tumor-bearing nude mice; assay: In vivo vasopermeability / biodistribution study, Raji lymphoma model (Lym-1 immunoconjugates)
Protocol: The Raji lymphoma cell line was used to produce heterotransplants in 6-week-old female nude mice by the subcutaneous injection of a 0.2 ml inoculum consisting of 4 x 10^7 Raji cells and 4 x 10^6 human fetal fibroblast feeder cells in the left thigh. Three days prior to injection, the mice were irradiated with 400 rads using a cesium irradiator to ensure a high take rate of the implanted cells. The tumors were grown for 14-18 days until they grew to approximately 1 cm in diameter.
To test the relative effects of the immunoconjugates on the biodistribution and tumor uptake of Lym-1 or TNT-1 in tumor-bearing mice, separate groups of 4-5 mice were given intravenous injections of 30 µg of antibody alone or antibody conjugate. At 2.5 hr after injection, each group received 50 µCi of ^125I-labeled Lym-1 or TNT-1 F(ab')2 fragment as tracer.
All animals were sacrificed 72 hr later, by sodium pentobarbital overdose, for biodistribution analysis. Various organs, blood, and tumor were removed, weighed, and samples were counted in a gamma counter. For each mouse, data were expressed as tumor:organ ratio (cpm per gram tumor/cpm per gram organ) and percent injected dose/gram (%ID/g).
Each peptide and rhIL-2, as well as their respective immunoconjugates with MAb Lym-1, were assayed for their ability to induce tumor vascular permeability and enhanced antibody uptake in Raji tumor-bearing nude mice.

[2] = molecular target: nucleohistones expressed in the nucleus of mammalian cells; assay: paraformaldehyde-acetone-treated cell assay, 125I-labeled F(ab')2
[3] = molecular target: variant of the HLA-Dr antigen expressed on the cell surface of human B-lymphocytes and malignant lymphomas (on Raji Burkitt's lymphoma cells) (human); assay: live cell radioimmunoassay on Raji cells, 125I-labeled F(ab')2

Molecule: 3C: synthetic peptide fragment of IL-2, amino acid sequence 22-58 (SEQ ID NO: 1), permeability enhancing peptide (QMILNGINNYKNPKLTRMLTFKFYMPKKATELKHLQC) [Fragment 3C]
vasopermeability effects of Lym-1/IL-2 chemical conjugate ([1]; named peptide tested as vasoconjugate (joined to delivery vehicle, Lym-1), relative to IL-2 immunoconjugate): approximately 100%
Vasopermeability (%Lym-1/IL-2) ([1]; tumor vascular permeability and enhanced antibody uptake in Raji tumor-bearing nude mice, relative to Lym-1/IL-2, 30-40 pM of peptide per assay): 0 %Lym-1/IL-2

immunoreactivity [2]: > 80%
Molecule: 125I-labeled F(ab')2 fragment of murine monoclonal antibody TNT-1 (IgG2a)

percent bound (immunoreactivity) [3]: 80%
B1: 125I-labeled F(ab')2 fragment of murine monoclonal antibody Lym-1 (IgG2a) (antibody, from another filing, V domains shown)
VH: QLKESGPGLVAPSQSLSITCTISGFSLTSYGVHWVRQPPGKGLEWLVVIWSDGSTTYNSALKSRLSISKDNSKSQVFLKMNSLQTDDTAIYYCASHYGSTLAFASWGHGTLVTVSA
VL: DIQMTQSPASLSASVGETVTIICRASVNIYSYLAWYQQKQGKSPQLLVYNAKILAEGVPSRFSGSGSGTQFSLKINSLQPEDFGSYYCQHHYGTFTFGSGTKLEIK
